This note sets out measurements from patent publication US11497752B2, “Compounds and uses thereof” (Foghorn Therapeutics Inc., priority 2018, dated 2022).

Experiment [1] has as its system uveal melanoma and hematologic cancer cell lines. As to conditions: FIG. 1; 0 to 10 micromolar; uveal melanoma and hematologic cancer cell lines vs other tested cell lines.
Experiment [2] concerns Uveal melanoma cell lines, 92-1 or MP41. In words: Comparison with clinical PKC and MEK inhibitors in uveal melanoma cell lines (Cell-titer glo, 3 days). In kind it is cell-based. As to conditions: FIG. 2, vs LXS196 and Selumetinib.
Another experiment deals with BRG-1 (Homo sapiens, UniProt P51532). In words: ATPase catalytic activity of BRG-1 (ADP-Glo in vitro biochemical assay). As to conditions: for BRG1 Max % Inhibition: Table 6. For orientation: ADP-Glo first removes unused ATP, then detects ADP through luciferase.
The target of the next experiment is BRM (Homo sapiens, UniProt P51531). In words: ATPase catalytic activity of BRM (ADP-Glo in vitro biochemical assay). As to conditions: for BRM Max % Inhibition: Table 6.
Sequence of BRM (P51531 whole entry): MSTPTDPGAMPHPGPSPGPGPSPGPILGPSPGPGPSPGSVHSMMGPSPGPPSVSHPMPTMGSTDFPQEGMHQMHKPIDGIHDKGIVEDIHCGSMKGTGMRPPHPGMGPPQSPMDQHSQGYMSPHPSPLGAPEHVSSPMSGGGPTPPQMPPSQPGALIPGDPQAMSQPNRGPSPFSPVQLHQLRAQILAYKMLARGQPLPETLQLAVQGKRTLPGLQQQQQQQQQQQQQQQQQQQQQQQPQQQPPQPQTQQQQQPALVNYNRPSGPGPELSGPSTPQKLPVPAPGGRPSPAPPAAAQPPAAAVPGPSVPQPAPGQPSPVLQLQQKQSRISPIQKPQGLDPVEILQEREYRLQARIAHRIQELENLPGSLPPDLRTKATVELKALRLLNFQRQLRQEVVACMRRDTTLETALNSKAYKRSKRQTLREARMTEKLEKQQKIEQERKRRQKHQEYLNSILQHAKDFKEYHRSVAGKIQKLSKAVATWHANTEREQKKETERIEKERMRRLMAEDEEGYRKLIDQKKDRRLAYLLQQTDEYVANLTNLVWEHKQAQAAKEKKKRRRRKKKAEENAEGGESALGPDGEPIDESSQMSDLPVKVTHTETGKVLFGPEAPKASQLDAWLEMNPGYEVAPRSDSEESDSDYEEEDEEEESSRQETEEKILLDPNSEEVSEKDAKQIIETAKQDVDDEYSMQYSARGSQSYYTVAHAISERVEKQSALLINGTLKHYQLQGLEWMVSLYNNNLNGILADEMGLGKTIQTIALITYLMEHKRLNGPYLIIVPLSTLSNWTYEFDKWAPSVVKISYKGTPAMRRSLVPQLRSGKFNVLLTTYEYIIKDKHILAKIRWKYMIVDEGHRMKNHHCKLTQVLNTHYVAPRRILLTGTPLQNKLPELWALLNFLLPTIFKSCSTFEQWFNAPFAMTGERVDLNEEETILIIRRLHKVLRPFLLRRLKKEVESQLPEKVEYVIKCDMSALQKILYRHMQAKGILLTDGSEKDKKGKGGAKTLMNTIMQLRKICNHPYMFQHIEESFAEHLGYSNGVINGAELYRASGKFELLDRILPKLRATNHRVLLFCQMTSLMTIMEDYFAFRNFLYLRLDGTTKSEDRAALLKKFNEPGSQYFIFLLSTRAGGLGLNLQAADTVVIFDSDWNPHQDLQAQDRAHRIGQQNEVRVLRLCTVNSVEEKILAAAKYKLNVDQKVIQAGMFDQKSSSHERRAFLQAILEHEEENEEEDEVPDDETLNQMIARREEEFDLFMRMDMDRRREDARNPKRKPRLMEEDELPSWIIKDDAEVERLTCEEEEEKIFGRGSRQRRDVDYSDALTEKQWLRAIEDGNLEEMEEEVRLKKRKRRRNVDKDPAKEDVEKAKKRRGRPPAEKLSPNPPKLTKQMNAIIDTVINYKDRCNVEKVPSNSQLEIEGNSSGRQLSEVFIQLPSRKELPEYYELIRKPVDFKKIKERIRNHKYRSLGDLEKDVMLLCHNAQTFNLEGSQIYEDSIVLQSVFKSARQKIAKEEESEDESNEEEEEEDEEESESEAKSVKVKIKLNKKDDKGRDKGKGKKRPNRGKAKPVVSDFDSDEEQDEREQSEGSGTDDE

Sequence of BRG-1 (P51532 whole entry): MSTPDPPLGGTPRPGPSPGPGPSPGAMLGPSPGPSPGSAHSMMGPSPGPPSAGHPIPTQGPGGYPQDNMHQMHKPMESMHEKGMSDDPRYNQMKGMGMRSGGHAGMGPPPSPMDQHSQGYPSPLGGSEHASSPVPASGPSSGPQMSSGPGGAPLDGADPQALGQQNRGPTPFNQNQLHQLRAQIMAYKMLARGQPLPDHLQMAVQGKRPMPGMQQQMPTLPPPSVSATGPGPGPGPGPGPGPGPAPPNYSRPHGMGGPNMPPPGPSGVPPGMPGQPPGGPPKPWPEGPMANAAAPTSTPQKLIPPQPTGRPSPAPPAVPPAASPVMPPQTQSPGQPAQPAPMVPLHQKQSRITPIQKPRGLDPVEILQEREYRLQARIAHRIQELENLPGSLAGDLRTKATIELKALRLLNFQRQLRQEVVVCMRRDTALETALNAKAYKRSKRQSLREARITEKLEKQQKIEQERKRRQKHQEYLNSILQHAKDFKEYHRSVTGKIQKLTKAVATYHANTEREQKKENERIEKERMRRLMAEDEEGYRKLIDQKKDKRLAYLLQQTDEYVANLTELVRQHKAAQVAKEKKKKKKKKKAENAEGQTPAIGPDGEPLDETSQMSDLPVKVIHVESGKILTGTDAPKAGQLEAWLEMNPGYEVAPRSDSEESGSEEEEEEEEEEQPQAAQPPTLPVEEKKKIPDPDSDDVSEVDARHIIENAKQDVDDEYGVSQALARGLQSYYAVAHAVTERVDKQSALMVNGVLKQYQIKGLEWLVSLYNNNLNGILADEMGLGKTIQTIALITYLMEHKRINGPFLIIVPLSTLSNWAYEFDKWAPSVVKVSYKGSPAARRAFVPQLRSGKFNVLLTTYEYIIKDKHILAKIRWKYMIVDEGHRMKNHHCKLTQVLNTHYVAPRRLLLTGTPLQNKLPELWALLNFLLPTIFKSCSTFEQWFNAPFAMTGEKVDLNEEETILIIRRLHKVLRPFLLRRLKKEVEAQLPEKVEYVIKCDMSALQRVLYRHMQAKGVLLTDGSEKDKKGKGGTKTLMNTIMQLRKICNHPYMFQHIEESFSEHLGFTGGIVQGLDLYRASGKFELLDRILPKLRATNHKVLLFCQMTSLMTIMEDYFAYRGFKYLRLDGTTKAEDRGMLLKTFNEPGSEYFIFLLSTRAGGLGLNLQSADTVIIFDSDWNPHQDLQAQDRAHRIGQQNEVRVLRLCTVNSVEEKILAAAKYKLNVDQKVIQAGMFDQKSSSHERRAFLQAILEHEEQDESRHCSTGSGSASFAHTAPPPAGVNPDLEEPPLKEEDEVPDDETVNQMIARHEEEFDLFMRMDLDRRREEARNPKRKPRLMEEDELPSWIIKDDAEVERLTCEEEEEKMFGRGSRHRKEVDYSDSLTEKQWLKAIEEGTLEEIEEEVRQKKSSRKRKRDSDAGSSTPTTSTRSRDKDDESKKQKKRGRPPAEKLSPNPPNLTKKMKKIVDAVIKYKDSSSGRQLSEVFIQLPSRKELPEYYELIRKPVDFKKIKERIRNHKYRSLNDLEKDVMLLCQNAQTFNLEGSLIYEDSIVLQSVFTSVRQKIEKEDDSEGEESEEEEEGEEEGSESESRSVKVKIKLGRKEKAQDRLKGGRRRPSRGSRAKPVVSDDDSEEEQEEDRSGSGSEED

Turning to `CSCC[C@H](NC(=O)c1ccc(N)cc1)C(=O)Nc1nc(-c2cccc(-c3ccncc3)c2)cs1` [Compound 87, (S)-4-amino-N-(4-(methylthio)-1-oxo-1-((4-(3-(pyridin-4-yl)phenyl)thiazol-2-yl)amino)butan-2-yl)benzamide], the “sensitivity of cell lines to growth inhibition (GI50)” value in experiment [1] is on record as “more sensitive to BRG1/BRM inhibition than the other tested cell lines”. In addition, in experiment [2] (0 to 10 micromolar, 3 days), the “growth inhibition of uveal melanoma cells” value is “comparable growth inhibition of uveal melanoma cells as the clinical PKC and MEK inhibitors”. Also, in experiment [2], the onset of inhibition result was “faster onset of inhibition than the clinical PKC and MEK inhibitors”.
For the compound `Cn1ncc2ccc(-c3csc(NC(=O)CNC(=O)c4ccc(N)cc4)n3)cc21` [Compound 228, 4-amino-N-[2-[[4-(1-methylindazol-6-yl)thiazol-2-yl]amino]-2-oxo-ethyl]benzamide], at BRG-1, the IC50 is 100 to 1000 nM and the “BRG1 Max % Inhibition” value is given as greater than 90%. Moreover, on BRM, the half-inhibitory concentration (IC50) lay in the range of 100 to 1000 nM and the “BRM Max % Inhibition” value is given as greater than 90%.
As to `CC(C)(O)Cn1ccc(-c2cccc(-c3csc(NC(=O)CNC(=O)c4ccc(N)cc4)n3)c2)n1` [Compound 229, 4-amino-N-[2-[[4-[3-[1-(2-hydroxy-2-methyl-propyl)pyrazol-3-yl]phenyl]thiazol-2-yl]amino]-2-oxo-ethyl]benzamide], on BRG-1, the IC50 fell in the range of 100 to 1000 nM and the “BRG1 Max % Inhibition” value is listed as greater than 95%. At BRM, the IC50 is 100 to 1000 nM and the “BRM Max % Inhibition” value is reported as greater than 95%.
In the case of `Nc1ccc(C(=O)NCC(=O)Nc2nc(-c3cccc(COC4CCOCC4)c3)cs2)cc1` [Compound 230, 4-amino-N-[2-oxo-2-[[4-[3-(tetrahydropyran-4-yloxymethyl)phenyl]thiazol-2-yl]amino]ethyl]benzamide], at BRG-1, the IC50 fell in the range of 100 to 1000 nM and the “BRG1 Max % Inhibition” value is on record as greater than 90%. Moreover, on BRM, the IC50 lay within 100 to 1000 nM and the “BRM Max % Inhibition” value is greater than 95%.
Regarding `COC(C)(C)Cn1ccc(-c2cccc(-c3csc(NC(=O)CNC(=O)c4ccc(N)cc4)n3)c2)n1` [Compound 232, 4-amino-N-[2-[[4-[3-[1-(2-methoxy-2-methyl-propyl)pyrazol-3-yl]phenyl]thiazol-2-yl]amino]-2-oxo-ethyl]benzamide], at BRG-1, the IC50 was 100 to 1000 nM and the “BRG1 Max % Inhibition” value is greater than 80%. Moreover, at BRM, the half-maximal inhibitory concentration (IC50) is 100 to 1000 nM and the “BRM Max % Inhibition” value is greater than 80%.
For the compound `CN(C)CC[C@H](NC(=O)c1ccc(N)cc1)C(=O)Nc1nc(-c2cccc(-c3ccncc3)c2)cs1` [Compound 233, (S)-4-amino-N-(4-(dimethylamino)-1-oxo-1-((4-(3-(pyridin-4-yl)phenyl)thiazol-2-yl)amino)butan-2-yl)benzamide], on BRG-1, the concentration for half-maximal inhibition (IC50) lay within 100 to 1000 nM and the “BRG1 Max % Inhibition” value is greater than 80%. At BRM, the IC50 lay in the range of 100 to 1000 nM and the “BRM Max % Inhibition” value is listed as greater than 90%.
Regarding `Nc1ccc(C(=O)NCC(=O)Nc2nc(-c3cccc(N4CCC[C@@H](O)C4)c3)cs2)cc1` [Compound 234, 4-amino-N-[2-[[4-[3-[(3R)-3-hydroxy-1-piperidyl]phenyl]thiazol-2-yl]amino]-2-oxo-ethyl]benzamide], on BRG-1, the IC50 lay within 100 to 1000 nM and the “BRG1 Max % Inhibition” value is reported as greater than 90%. Besides, on BRM, the IC50 fell in the range of 100 to 1000 nM and the “BRM Max % Inhibition” value is given as greater than 90%.
Take `CC(OC1CCOCC1)c1cccc(-c2csc(NC(=O)CNC(=O)c3ccc(N)cc3)n2)c1` (stereo not shown) [Compound 235, 4-amino-N-[2-oxo-2-[[4-[3-(1-tetrahydropyran-4-yloxyethyl)phenyl]thiazol-2-yl]amino]ethyl]benzamide]: on BRG-1, the IC50 was 100 to 1000 nM and the “BRG1 Max % Inhibition” value was greater than 70%. Further, at BRM, the IC50 was 100 to 1000 nM and the “BRM Max % Inhibition” value is recorded as greater than 90%.
As for `Nc1ccc(C(=O)NCC(=O)Nc2nc(-c3cccc(N4CCC[C@H](O)C4)c3)cs2)cc1` [Compound 236, 4-amino-N-[2-[[4-[3-[(3S)-3-hydroxy-1-piperidyl]phenyl]thiazol-2-yl]amino]-2-oxo-ethyl]benzamide], on BRG-1, the 50% inhibitory concentration (IC50) was 100 to 1000 nM and the “BRG1 Max % Inhibition” value is on record as greater than 90%. Besides, at BRM, the half-inhibitory concentration (IC50) lay within 100 to 1000 nM and the “BRM Max % Inhibition” value is reported as greater than 90%.
Take `CSCC[C@H](NC(=O)c1ccc(N)cc1)C(=O)Nc1nc(-c2cccc(-c3cccc(CN)c3)c2)cs1` [Compound 237, 4-amino-N-[(1S)-1-[[4-[3-[3-(aminomethyl)phenyl]phenyl]thiazol-2-yl]carbamoyl]-3-methylsulfanyl-propyl]benzamide]: on BRG-1, the IC50 lay within 100 to 1000 nM and the “BRG1 Max % Inhibition” value is recorded as greater than 90%. At BRM, the half-maximal inhibitory concentration (IC50) fell in the range of 100 to 1000 nM and the “BRM Max % Inhibition” value is greater than 90%.
For the compound `CO[C@H]1CCCN(c2cccc(-c3csc(NC(=O)CNC(=O)c4ccc(N)cc4)n3)c2)C1` [Compound 238, 4-amino-N-[2-[[4-[3-[(3S)-3-methoxy-1-piperidyl]phenyl]thiazol-2-yl]amino]-2-oxo-ethyl]benzamide], on BRG-1, the IC50 lay in the range of 100 to 1000 nM and the “BRG1 Max % Inhibition” value is recorded as greater than 95%. Besides, at BRM, the half-inhibitory concentration (IC50) was in the range of 100 to 1000 nM and the “BRM Max % Inhibition” value was greater than 90%.
On to `Nc1ccc(C(=O)NCC(=O)Nc2nc(-c3cccc(C4CCCCO4)c3)cs2)cc1` (stereo not shown) [Compound 239, 4-amino-N-[2-oxo-2-[[4-(3-tetrahydropyran-2-ylphenyl)thiazol-2-yl]amino]ethyl]benzamide], for which, on BRG-1, the half-maximal inhibitory concentration (IC50) was in the range of 100 to 1000 nM and the “BRG1 Max % Inhibition” value is greater than 80%. At BRM, the IC50 lay in the range of 100 to 1000 nM and the “BRM Max % Inhibition” value is reported as greater than 90%.
As for `Nc1ccc(C(=O)NCC(=O)Nc2nc(-c3ccc4cncnc4c3)cs2)cc1` [Compound 240, 4-amino-N-[2-oxo-2-[(4-quinazolin-7-ylthiazol-2-yl)amino]ethyl]benzamide], at BRG-1, the half-maximal inhibitory concentration (IC50) fell in the range of 100 to 1000 nM and the “BRG1 Max % Inhibition” value is given as greater than 80%. At BRM, the IC50 is 100 to 1000 nM and the “BRM Max % Inhibition” value is reported as greater than 80%.
On to `CC(C)(N)Cn1ccc(-c2cccc(-c3csc(NC(=O)CNC(=O)c4ccc(N)cc4)n3)c2)n1` [Compound 241, 4-amino-N-[2-[[4-[3-[1-(2-amino-2-methyl-propyl)pyrazol-3-yl]phenyl]thiazol-2-yl]amino]-2-oxo-ethyl]benzamide], for which, at BRG-1, the IC50 was 100 to 1000 nM and the “BRG1 Max % Inhibition” value is given as greater than 90%. In addition, on BRM, the IC50 was in the range of 100 to 1000 nM and the “BRM Max % Inhibition” value is greater than 90%.

A word on the IC50: it is the concentration that gives 50% inhibition. Higher therefore signals lower potency.
